{"source": "patent US8183213B2", "about": "“Combination therapy comprising glucose reabsorption inhibitors and retinoid-X receptor modulators” (Ortho McNeil Pharmaceutical, Inc., priority 2001, dated 2012)", "key": {"db/db mice [1]": {"system": "db/db mice", "assay": "Fed plasma glucose after oral dosing of MX-6054 +/- T-1095 (Example 5)", "type": "in vivo", "settings": "± SEM", "protocol": "(§1) To examine the effect of T-1095 in combination with a RXR agonist, male db/db mice (7 weeks of age/Jackson Labs, ME) were treated daily for 11 days with vehicle (0.5% methylcellulose), an RXR agonist such as MX-6054 (0.1 mg/kg-10 mg/kg), T-1095 (100 mg/kg), or MX-6054 plus T-1095. Mice (n=8 animals/group) received the test compounds or vehicle by oral gavage in a volume of 10 ml/kg of body weight. Body weight was recorded on day 1, prior to dosing, and days 4, 8 and 11. Two hours after the final dose (day 11), mice were weighed and anesthetized with CO2/O2 (70:30). Mice were then bled by retro-orbital sinus puncture into 2 mL heparinized polypropylene tubes on ice. Livers were excised, weighed and frozen.\n(§2) Plasma samples were then assayed for glucose and triglycerides using Trinder reagent (Sigma Diagnostics) and GPO-Trinder (Sigma Diagnostics)."}, "db/db mice [2]": {"system": "db/db mice", "assay": "Fed plasma triglycerides after oral dosing of MX-6054 +/- T-1095 (Example 5)", "type": "in vivo", "settings": "± SEM", "protocol": "as §1, §2"}, "[3]": {"assay": "Liver weight after oral dosing of MX-6054 +/- T-1095 (Example 5)", "type": "in vivo", "settings": "db/db mice; for liver weight (title: Effects on body and liver weights): oral dosing (title: 35 day), in g (unit assumed)"}, "[4]": {"assay": "Body weight after oral dosing of MX-6054 +/- T-1095 (Example 5)", "type": "in vivo", "settings": "oral dosing (title: 35 day), db/db mice", "protocol": "To examine the effect of T-1095 in combination with a RXR agonist, male db/db mice (7 weeks of age/Jackson Labs, […]), an RXR agonist such as MX-6054 (0.1 mg/kg-10 mg/kg), T-1095 (100 mg/kg), or MX-6054 plus T-1095. Mice (n=8 animals/group) received the test compounds or vehicle by oral gavage in a volume of 10 ml/kg of body weight. […] […] Mice were then bled by retro-orbital sinus puncture into 2 mL heparinized polypropylene tubes on ice. Livers were excised, weighed and frozen."}, "[5]": {"system": "Na^+-glucose co-transporters located in chorionic membrane of the intestine and the kidney", "settings": "cited from earlier work"}, "[6]": {"system": "renal tubular glucose reabsorption", "settings": "subcutaneous daily administration; cited from earlier work"}, "[7]": {"system": "diabetic rodent models (STZ-induced diabetic rat, yellow KK mice, db/db mice, Zucker Diabetic Fatty rats and GK rats)", "settings": "cited from earlier work"}, "SGLT2 (SAAT1)": {"system": "SGLT2 (SAAT1)", "settings": "Kidney (S3), cited from earlier work; for Km: for D-glucose"}, "SGLT1": {"target": "T1, SGLT1 (Homo sapiens, UniProt P13866)", "T1 sequence (P13866 1-664)": "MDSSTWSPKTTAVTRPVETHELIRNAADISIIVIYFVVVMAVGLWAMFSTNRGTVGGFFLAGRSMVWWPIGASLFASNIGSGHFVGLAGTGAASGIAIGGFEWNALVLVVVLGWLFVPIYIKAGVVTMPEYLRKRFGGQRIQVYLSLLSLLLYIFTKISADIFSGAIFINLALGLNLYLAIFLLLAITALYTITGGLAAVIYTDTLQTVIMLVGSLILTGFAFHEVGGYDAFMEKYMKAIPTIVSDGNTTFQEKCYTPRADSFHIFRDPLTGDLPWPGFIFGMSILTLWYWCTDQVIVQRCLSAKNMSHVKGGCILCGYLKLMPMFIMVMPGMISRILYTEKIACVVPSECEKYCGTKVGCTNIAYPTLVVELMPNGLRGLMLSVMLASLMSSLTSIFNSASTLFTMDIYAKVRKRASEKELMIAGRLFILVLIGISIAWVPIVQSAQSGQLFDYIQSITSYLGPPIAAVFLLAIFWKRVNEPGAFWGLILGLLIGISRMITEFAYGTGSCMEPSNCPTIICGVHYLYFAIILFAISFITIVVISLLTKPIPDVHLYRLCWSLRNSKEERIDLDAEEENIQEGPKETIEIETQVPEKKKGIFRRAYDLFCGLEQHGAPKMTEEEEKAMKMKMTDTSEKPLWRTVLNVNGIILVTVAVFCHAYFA", "settings": "Kidney (S1, S3), cited from earlier work; for Km: for D-glucose"}, "SGLT in the kidney": {"system": "SGLT in the kidney", "settings": "cited from earlier work"}, "SGLT-2 in the kidney": {"target": "T2, SGLT-2 in the kidney (Homo sapiens, UniProt P31639)", "T2 sequence (P31639 1-672)": "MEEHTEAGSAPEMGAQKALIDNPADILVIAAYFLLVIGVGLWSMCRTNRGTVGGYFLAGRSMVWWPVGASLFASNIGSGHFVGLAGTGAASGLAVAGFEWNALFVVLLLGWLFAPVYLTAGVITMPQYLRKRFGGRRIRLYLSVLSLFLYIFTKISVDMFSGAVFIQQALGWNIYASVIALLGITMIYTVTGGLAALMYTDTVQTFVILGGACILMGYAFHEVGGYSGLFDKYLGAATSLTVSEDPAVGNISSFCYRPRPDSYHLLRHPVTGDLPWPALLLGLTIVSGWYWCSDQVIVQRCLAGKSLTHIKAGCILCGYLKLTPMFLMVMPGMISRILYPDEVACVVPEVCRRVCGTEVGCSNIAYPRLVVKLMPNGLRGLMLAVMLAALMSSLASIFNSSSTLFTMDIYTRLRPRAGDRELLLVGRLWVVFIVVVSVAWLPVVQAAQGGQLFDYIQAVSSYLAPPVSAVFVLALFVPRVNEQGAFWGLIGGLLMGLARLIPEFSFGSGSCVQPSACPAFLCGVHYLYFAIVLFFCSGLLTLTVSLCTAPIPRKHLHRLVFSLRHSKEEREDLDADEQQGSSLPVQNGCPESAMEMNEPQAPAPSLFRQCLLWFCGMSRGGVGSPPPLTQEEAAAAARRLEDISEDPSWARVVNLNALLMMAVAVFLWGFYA", "settings": "compared with T-1095; cited from earlier work"}, "[8]": {"settings": "0.1 mpk MX-6054, 11 day oral dosing"}, "[9]": {"settings": "0.3 mpk MX-6054, 11 day oral dosing"}, "[10]": {"settings": "1 mpk MX-6054, 11 day oral dosing"}, "[11]": {"settings": "3 mpk MX-6054, 11 day oral dosing"}, "[12]": {"settings": "10 mpk MX-6054, 11 day oral dosing"}, "[13]": {"settings": "100 mpk T-1095, 11 day oral dosing"}}, "note": "Read-outs that look alike come from different tables or passages of the source.", "data": [{"smiles": "Cc1cc2c(cc1-c1cc(/C=C3\\SC(=O)NC3=O)ccc1OC(F)(F)F)C(C)(C)CCC2(C)C", "note": "[MX-6054, 2,4-thiazolidinedione, 5-[[3-(5,6,7,8-tetrahydro-3,5,5,8,8-pentamethyl-2-naphthalenyl)-4-(trifluoromethoxy)phenyl]methylene]-, (5Z)-]", "values": [{"measurement": "Glucose", "setting": "db/db mice [1]; [8]", "result": "357 ± 46", "unit": "mg/dL"}, {"measurement": "Glucose", "setting": "db/db mice [1]; [9]", "result": "342 ± 41", "unit": "mg/dL"}, {"measurement": "Glucose", "setting": "db/db mice [1]; [10]", "result": "406 ± 57", "unit": "mg/dL"}, {"measurement": "Glucose", "setting": "db/db mice [1]; [11]", "result": "255 ± 42", "unit": "mg/dL"}, {"measurement": "Glucose", "setting": "db/db mice [1]; [12]", "result": "224 ± 13", "unit": "mg/dL"}, {"measurement": "Triglycerides", "setting": "db/db mice [2]; [8]", "result": "260 ± 24", "unit": "mg/dL"}, {"measurement": "Triglycerides", "setting": "db/db mice [2]; [9]", "result": "262 ± 25", "unit": "mg/dL"}, {"measurement": "Triglycerides", "setting": "db/db mice [2]; [10]", "result": "259 ± 28", "unit": "mg/dL"}, {"measurement": "Triglycerides", "setting": "db/db mice [2]; [11]", "result": "206 ± 24", "unit": "mg/dL"}, {"measurement": "Triglycerides", "setting": "db/db mice [2]; [12]", "result": "189 ± 11", "unit": "mg/dL"}, {"measurement": "liver weight (title: Effects on body and liver weights)", "setting": "[3]; 0.1 mpk MX-6054", "result": "1.76 ± 0.11"}, {"measurement": "liver weight (title: Effects on body and liver weights)", "setting": "[3]; 0.3 mpk MX-6054", "result": "1.93 ± 0.09"}, {"measurement": "liver weight (title: Effects on body and liver weights)", "setting": "[3]; 1 mpk MX-6054", "result": "1.98 ± 0.09"}, {"measurement": "liver weight (title: Effects on body and liver weights)", "setting": "[3]; 3 mpk MX-6054", "result": "1.89 ± 0.09"}, {"measurement": "liver weight (title: Effects on body and liver weights)", "setting": "[3]; 10 mpk MX-6054", "result": "2.38 ± 0.16"}, {"measurement": "liver weight, effect of treatment in words", "setting": "[3]; treatment with MX-6054", "result": "significant increase"}, {"measurement": "body weight (title: Effects on body and liver weights)", "setting": "[4]; 0.1 mpk MX-6054", "result": "−0.7 ± 0.7"}, {"measurement": "body weight (title: Effects on body and liver weights)", "setting": "[4]; 0.3 mpk MX-6054", "result": "0.2 ± 0.4"}, {"measurement": "body weight (title: Effects on body and liver weights)", "setting": "[4]; 1 mpk MX-6054", "result": "0.6 ± 0.6"}, {"measurement": "body weight (title: Effects on body and liver weights)", "setting": "[4]; 3 mpk MX-6054", "result": "−0.8 ± 1.3"}, {"measurement": "body weight (title: Effects on body and liver weights)", "setting": "[4]; 10 mpk MX-6054", "result": "2.5 ± 1.1"}]}, {"smiles": "O=C(CCc1ccc(O)cc1)c1c(O)cc(O)cc1O[C@@H]1O[C@H](CO)[C@@H](O)[C@H](O)[C@H]1O", "note": "[phlorizin]", "values": [{"measurement": "Na^+-glucose co-transporter activity", "setting": "[5]", "result": "inhibits"}, {"measurement": "glucose level in a plasma", "setting": "[6]", "result": "controlled at a normal level for a long time"}]}, {"smiles": "COC(=O)OCC1OC(Oc2cc(C)cc(O)c2C(=O)CCc2ccc3occc3c2)C(O)C(O)C1O", "note": "(centres unmarked) [T-1095]", "values": [{"measurement": "Glucose", "setting": "db/db mice [1]; [13]", "result": "201 ± 9", "unit": "mg/dL"}, {"measurement": "Triglycerides", "setting": "db/db mice [2]; [13]", "result": "196 ± 11", "unit": "mg/dL"}, {"measurement": "adding weight, infection in the urinary tracts, electrolyte imbalance in plasma, changes in food intake, acute hypoglycemic shock, pathological changes in the kidney", "setting": "[7]; during treatment with T-1095", "result": "no observed sign"}, {"measurement": "oral glucose tolerance test and hyperinsulinemic euglycemic clamp studies", "setting": "[7]; in vivo, po", "result": "improvement of glucose tolerance and the reduction of insulin resistance"}, {"measurement": "elevated blood glucose levels", "setting": "[7]; oral administration, rodent models of IDDM and NIDDM", "result": "suppress elevated blood glucose levels"}, {"measurement": "fed and fasting blood glucose levels and HbA1c", "setting": "[7]; treatment for 3 weeks to 6 months, diabetic rodent models", "result": "reduced"}, {"measurement": "hyperinsulinemia, hypertriglyceridemia, and the development of microalbuminuria", "setting": "[7]; yellow KK mice and other diabetic mice models", "result": "decrease"}, {"measurement": "liver weight (title: Effects on body and liver weights)", "setting": "[3]; 100 mpk T-1095", "result": "1.64 ± 0.07"}, {"measurement": "MX-6054-induced increase in liver weight", "setting": "[3]; co-administration of T-1095 with MX-6054", "result": "prevented"}, {"measurement": "body weight (title: Effects on body and liver weights)", "setting": "[4]; 100 mpk T-1095", "result": "0.7 ± 0.3"}]}, {"smiles": "O=C[C@H](O)[C@@H](O)[C@H](O)[C@H](O)CO", "note": "[D-glucose]", "values": [{"measurement": "Km", "setting": "SGLT2 (SAAT1); read-out: Km In vivo", "result": 6000, "unit": "µM"}, {"measurement": "Km", "setting": "SGLT2 (SAAT1); read-out: Km in vitro", "result": 1640, "unit": "µM"}, {"measurement": "TmG in vitro (Maximal transport rate)", "setting": "SGLT2 (SAAT1)", "result": 83, "unit": "pmol/min/mm"}, {"measurement": "Km", "setting": "SGLT1; read-out: Km In vivo", "result": 300, "unit": "µM"}, {"measurement": "Km", "setting": "SGLT1; read-out: Km in vitro", "result": 390, "unit": "µM"}, {"measurement": "TmG in vitro (Maximal transport rate)", "setting": "SGLT1", "result": 7.9, "unit": "pmol/min/mm"}]}, {"smiles": "Cc1cc(O)c(C(=O)CCc2ccc3occc3c2)c(OC2OC(CO)C(O)C(O)C2O)c1", "note": "(centres unmarked) [T-1095A]", "values": [{"measurement": "inhibition of SGLT in the kidney", "setting": "SGLT in the kidney", "result": "selective and potent inhibitor"}, {"measurement": "substrate for the inhibition of SGLT-2 in the kidney", "setting": "SGLT-2 in the kidney", "result": "better substrate"}]}]}
